Consider 26 compounds from PubChem BioAssay (NCI).

Assay in all cases: inhibition of tumour cell growth, NCI panel, 48 h
Assay [1] deals with HCT-116 colon.
For assay [2], the system named is NCI-H460 lung.
The subject of assay [3] is U251 CNS.
Assay [4] has as its system CAKI-1 renal.
In assay [5] the test system is M14 melanoma.
Assay [6] concerns SK-MEL-28 melanoma.
Assay [7] deals with EKVX NSCLC.
In assay [8] the test system is SNB-75 CNS.
The test system of assay [9] is CCRF-CEM leukemia.
Assay [10] concerns HCC-2998 colon.

SMILES strings stand for the structures. Values joined by “and” are separate entries in the source; they are usually repeats but may differ in a detail not shown here. Equal values may be shown once.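 How tested: cells in 96-well plates exposed to compound for 48 hours at five concentrations. Abbreviation: GI50, concentration required for 50% inhibition of growth. TGI denotes the concentration required for complete inhibition of growth.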

For the compound `COc1cc(/C=C2/C[C@H]3[C@@H]4CC=C5C[C@@H](OC(C)=O)CC[C@]5(C)[C@H]4CC[C@]3(C)NC2=O)cc(OC)c1OC`, the TGI in assay [1] was over 100 µM; in assay [2] it was over 100 µM; in assay [3], 46.5 µM; in [4], over 100 µM; in assay [5], over 100 µM; in [6] it was 70.9 µM. Further, the TGI in assay [7] is 68.3 µM; in assay [8], 47.3 µM; in [9] it was over 100 µM; in assay [10], over 100 µM.
As to `CCOP(=O)(OCC)C1CC(n2cc(C)c(=O)[nH]c2=O)OC1CO` (configuration not stated), the TGI in assay [1], in assay [2], in assay [3], in assay [4], in assay [5] and in assay [6] was over 100 µM each time. Further, the TGI in assay [7], in [8], in assay [9] and in assay [10] was over 100 µM each time. For the same compound, the GI50 in assay [7] is 44.1 µM and > 100 µM.
For the compound `CC(C)(Oc1ccc(Cl)cc1)C(=O)N(C(=O)N1CCC(c2ccccc2)CC1)c1ccccc1`, the TGI in [1], in assay [2], in assay [3], in [4], in [5] and in assay [6] was over 100 µM in each case. Moreover, the TGI in assay [7] was over 100 µM; in [8], over 83.2 µM; in assay [9], over 100 µM; in assay [10] it was over 100 µM.
As for `C(CCCCc1nnc(N2CCCCC2)o1)CCCc1nnc(N2CCCCC2)o1`, the TGI in assay [1], in [2], in assay [3], in assay [4], in assay [5] and in [6] was over 100 µM in each case. In addition, the TGI in [7], in assay [8], in [9] and in assay [10] was over 100 µM in each case.
Regarding `CC1(C)[C@H]2CC[C@]1(C)[C@H](OC(=O)NNC(=O)O[C@@H]1C[C@@H]3CC[C@@]1(C)C3(C)C)C2`, the TGI in [1] was 34.5 µM; in assay [2] it was 28.6 µM; in [3] it was 62.9 µM; in [4] it was 28.8 µM; in assay [5], 35.6 µM; in [6] it was over 100 µM. For the same compound, the TGI in [7] was determined as 31.2 µM; in [8], 28.1 µM; in assay [9], 76.6 µM; in assay [10], 27.7 µM.
Regarding `CSC1=N/C(=C\c2ccco2)C(=O)N1CN1CCOCC1`, the TGI is over 66.9 µM in assay [1]; 27.7 µM in assay [2]; over 100 µM in assay [3]; over 100 µM in assay [4]; over 100 µM in [5]; over 100 µM in [6]. The TGI in assay [7] is over 100 µM; in [8], over 100 µM; in [9], over 90.3 µM; in assay [10], 97 µM.
Consider `C=C(C)C(O)C(O)c1c(OC)ccc2ccc(=O)oc12` (configuration not stated), for which the TGI in assay [1], in [2], in assay [3], in [4], in assay [5] and in assay [6] was over 100 µM in each case. Moreover, the TGI in [7], in [8], in [9] and in assay [10] was over 100 µM in each case.
As to `CCOC(=O)c1cc2c(C(=O)c3ccc([N+](=O)[O-])cc3)c(C(C)=O)ccc2[nH]1`, the TGI in assay [1] is over 100 µM; in assay [2] it was over 100 µM; in assay [3], 32.3 µM; in assay [4], over 100 µM; in assay [5], over 100 µM; in [6] it was over 100 µM. Besides, the TGI in [7] is over 100 µM; in assay [8] it was 32.9 µM; in [9], over 100 µM; in assay [10], over 100 µM.
Regarding `O=c1oc2ccccc2cc1-c1cn2cc(Cl)ccc2n1`, the TGI in assay [1] was determined as 14.7 µM; in [2], 13.6 µM; in assay [3] it was 13.9 µM; in [4], 3.28 µM; in [5], 15.2 µM; in assay [6] it was 17.9 µM. In addition, the TGI in assay [7] is over 100 µM; in assay [8] it was over 21.2 µM; in assay [9], over 100 µM; in assay [10], 21.7 µM.
On to `COC(=O)[C@H]1CO[C@H]2C/C(C)=C/CC/C(C)=C/CC[C@@]3(C)O[C@@H]3C[C@H]21`, for which the TGI was 24.9 µM in assay [1]; 21.9 µM in [2]; over 50 µM in assay [3]; over 50 µM in [4]; over 50 µM in assay [5]; 34.9 µM in assay [6]. In addition, the TGI in assay [7] was over 50 µM; in assay [8], 39.2 µM; in [9], 28.1 µM; in [10] it was 17.9 µM.
For `COC1OC2COC1(OC)C1OC(C)(C)OC21` (configuration not stated), the TGI in [1], in assay [2], in [3], in assay [4], in [5] and in [6] was over 100 µM throughout. The TGI in assay [7], in assay [8], in assay [9] and in assay [10] was over 100 µM each time.
Turning to `O=C(c1cc(Cl)ccc1Cl)N1CCN(C(=O)c2cc(Cl)ccc2Cl)CC1`, the TGI in assay [1], in assay [2], in [3], in assay [4], in assay [5] and in [6] was over 100 µM throughout. For the same compound, the TGI in [7], in [8], in assay [9] and in assay [10] was over 100 µM each time.
Regarding `CCOC(=O)c1cnc2oc3ccc(O)cc3c2c1-c1ccccc1`, the TGI in assay [1], in assay [2], in [3], in assay [4], in [5] and in assay [6] was over 100 µM throughout. The TGI is over 100 µM in assay [7], 52.4 µM in assay [8], over 100 µM in assay [9] and over 100 µM in assay [10]. Besides, the GI50 in [8] is 16.5 µM.
`C/C=C(/C)C(=O)O[C@H](C[C@@H](C)[C@H]1CC(c2ccoc2)OC1=O)[C@@]1(C)C(=O)CCC2O[C@]21C` (some centres not stated): the TGI in assay [1], in assay [2], in assay [3], in [4], in [5] and in assay [6] was over 100 µM each time. Besides, the TGI in assay [7], in assay [8], in [9] and in assay [10] was over 100 µM throughout.
As to `Cc1c2c(n(CCc3ccc(Cl)cc3)c1C)NC(c1ccccc1)C(C#N)S2(=O)=O` (configuration not stated), the TGI in assay [1], in assay [2], in assay [3], in [4], in assay [5] and in [6] was over 100 µM in each case. Besides, the TGI is over 100 µM in assay [7], over 100 µM in assay [8], 5.07 µM in assay [9] and over 100 µM in assay [10].
Consider `O=C1c2cc3c(cc2CC12Cc1ccc4c(c1C2=O)CCCC4)CCCC3` (configuration not stated), for which the TGI was over 100 µM in assay [1]; over 100 µM in assay [2]; 60.5 µM in assay [3]; over 100 µM in assay [4]; over 100 µM in [5]; over 100 µM in [6]. For the same compound, the TGI in assay [7], in [8], in [9] and in assay [10] was over 100 µM each time.
For the compound `CC1=NN(c2nc(N)nc(/C(C#N)=C/c3cccn3-c3cc(Cl)cc(Cl)c3)n2)C(C)(C)C1`, the TGI was over 100 µM in [1]; over 100 µM in [2]; 28.3 µM in [3]; over 100 µM in [4]; over 100 µM in assay [5]; over 100 µM in assay [6]. Further, the TGI was over 100 µM in assay [7], 99.7 µM in assay [8], over 100 µM in [9] and over 100 µM in [10].
Regarding `C=C(CO[Si](C)(C)C(C)(C)C)C(C)=O`, the TGI was 27 µM in assay [1]; over 100 µM in assay [2]; over 100 µM in assay [3]; 46.9 µM in assay [4]; 27.5 µM in [5]; 34.6 µM in assay [6]. Besides, the TGI was over 100 µM in [7], 62.3 µM in assay [8], 9.01 µM in [9] and 57.3 µM in assay [10].
Take `O=C1/C(=N\S(=O)(=O)c2ccccc2)C([n+]2ccc(Cc3ccccc3)cc2)=C([O-])c2ccccc21`: the TGI in [1] was 2.46 µM; in [2], 2.22 µM; in [3] it was 5.48 µM; in assay [4], 3.44 µM; in [5], 2.68 µM; in assay [6], 2.14 µM. The TGI in [7] is 3.27 µM; in [8], 2.64 µM; in assay [9], over 100 µM; in assay [10] it was 2.51 µM.
For `CCOC(=O)c1c(N2CCCC2)ncn(Cc2ccccc2)c1=S`, the TGI in assay [1] is over 100 µM; in [2] it was over 100 µM; in assay [3], over 100 µM; in [4], 88.3 µM; in assay [5] it was over 100 µM; in assay [6], over 100 µM. Also, the TGI in [7], in assay [8], in assay [9] and in [10] was over 100 µM in each case.
In the case of `O=C(Nc1ccccc1)N(CCCCN(Cc1ccccc1)C(=O)Nc1ccccc1)Cc1ccccc1`, the TGI in assay [1], in [2], in assay [3], in assay [4], in [5] and in assay [6] was over 100 µM throughout. Besides, the TGI in assay [7], in assay [8], in [9] and in assay [10] was over 100 µM throughout.
Consider `CCCC(=O)NC(Nc1ccc(S(=O)(=O)Nc2nc(C)cc(C)n2)cc1)(C(F)(F)F)C(F)(F)F`, for which the TGI in assay [1], in assay [2], in assay [3], in [4], in assay [5] and in [6] was over 100 µM throughout. The TGI in assay [7], in [8], in assay [9] and in assay [10] was over 100 µM in each case.
Consider `CC(=O)Oc1c2oc3ccc(Cl)cc3c(=O)c2c(O)c2ccsc12`, for which the TGI in assay [1], in assay [2], in assay [3], in assay [4], in assay [5] and in assay [6] was over 100 µM each time. The TGI in assay [7], in assay [8], in assay [9] and in [10] was over 100 µM throughout.
As to `COc1ccc(C(SC2C(O)C(CO)OC2n2ccc(N)nc2=O)(c2ccccc2)c2ccc(OC)cc2)cc1` (configuration not stated), the TGI in assay [1] is 29.4 µM; in assay [2], 27.2 µM; in [3], 33 µM; in assay [4] it was over 100 µM; in assay [5], 27.9 µM; in assay [6], 75.6 µM. Also, the TGI in assay [7] is 50.4 µM; in [8], 46.6 µM; in assay [9], over 100 µM; in assay [10], 32.6 µM.
`COc1ccc(NC(C)=O)cc1N1C(=O)/C(=C\c2cc(OC)c(OC)c(OC)c2)SC1c1ccccc1` (configuration not stated): the TGI is over 100 µM in [1]; over 100 µM in assay [2]; over 100 µM in assay [3]; 60.2 µM in assay [4]; over 100 µM in [5]; over 100 µM in [6]. Moreover, the TGI in [7], in [8], in [9] and in [10] was over 100 µM each time.
In the case of `CCN(CC)c1ccc2cc(C(=O)Nc3cccc4ccccc34)c(=N)oc2c1`, the TGI in assay [1], in assay [2], in assay [3], in [4], in [5] and in assay [6] was over 100 µM in each case. In addition, the TGI in [7], in assay [8], in [9] and in [10] was over 100 µM throughout.
